# In US20200190090A1, “OREXIN RECEPTOR ANTAGONISTS” (BENEVOLENTAI BIO LIMITED, priority 2017, published 2020):
# Read-outs that look alike come from different tables or passages of the source.
# What was measured:
# [1] = biological target: T1, human recombinant OX2 (hOX2R) receptor (Homo sapiens, UniProt O43614); assay: Scintillation Proximity binding Assay (SPA), [3H]-EMPA displacement, membranes of HEK cell line transformed with hOX2R; conditions: for Ki: 60 min, Cheng-Prusoff from IC50, geometric mean, read-out: hOX2R Binding pKi (60 min) (converted); for Selectivity OX2R/OX1R: selectivity calculated using Ki (Ox2R)/Ki(Ox1R)
# T1 construct: expressed in transfected cells; host or cells: HEK cell line (membranes)
# T1 sequence (O43614 1-444): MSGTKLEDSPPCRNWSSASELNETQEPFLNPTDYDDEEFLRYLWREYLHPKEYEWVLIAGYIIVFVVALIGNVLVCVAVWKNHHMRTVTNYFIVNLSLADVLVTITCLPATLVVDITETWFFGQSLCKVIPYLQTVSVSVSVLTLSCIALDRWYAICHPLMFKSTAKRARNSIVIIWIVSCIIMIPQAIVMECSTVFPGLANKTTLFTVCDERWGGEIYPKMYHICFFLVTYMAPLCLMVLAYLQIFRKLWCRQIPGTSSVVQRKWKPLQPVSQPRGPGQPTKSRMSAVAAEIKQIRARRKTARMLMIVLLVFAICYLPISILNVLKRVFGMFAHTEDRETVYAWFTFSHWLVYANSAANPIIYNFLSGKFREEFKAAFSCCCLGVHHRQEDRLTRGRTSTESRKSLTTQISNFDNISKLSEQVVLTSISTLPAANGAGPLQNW
# Procedure: (§1) The in vitro binding affinity of 6-[(3aS,4S,6aR)-5-(2-fluoro-4-methoxybenzoyl)-4-methyl-octahydropyrrolo[3,4-c]pyrrol-2-yl]-2,4-dimethylpyridine-3-carbonitrile 3278/6 (the compound of Example 1) for human recombinant OX1 (hOX1R) and OX2 (hOX2R) receptors was determined using a Scintillation Proximity binding Assay (SPA).
# (§2) A 96-well plate SPA was developed using antagonist radioligands (OX-radioligands); [3H]-SB674042 (Langmead et al., 2004; Malherbe et al., 2009a) for hOX1R and [3H]-EMPA (Malherbe et al., 2009b) for hOX2R. Cell membranes were prepared from recombinant cell lines; a CHO cell line transformed with hOX1R (GeneBank accession # NM_001525) and a HEK cell line transformed with hOX2R (GeneBank accession # NM_001526.2).
# (§3) On the day of the assay, membranes containing hOX1R or hOX2R were captured onto SPA-beads. All test compounds were dissolved in 100% DMSO as 10 mM stock solutions, and prepared as 8-point semi-log dilution in 100% DMSO immediately prior to assay (final assay range 5 uM to 0.064 nM). The compound of Example 1 was co-administered with the appropriate OX-radioligand, and the SPA-membrane preparation added to initiate the assay. During the assay, any compound of Example 1 that bound to the receptors competed with radioligand and reduced the assay signal. Assay plates were read using PerkinElmer Microbeta2 allowing the binding profile of the compound of Example 1 to be assessed at room temperature (19° C.) over several time points (15, 60, 90, 120, 150 minutes, and 18 hours) in hOX1R and hOX2R assay formats.
# (§4) End-point data values were determined as Specific Binding (SB) and expressed as a percentage of control (% SB), with 100% being the SB of OX-radioligand in the absence of competing unlabelled ligand, and 0% being the SB of the relevant OX-radioligand in the presence of an excess of the competing cold/unlabelled ligand (Suvorexant; a dual OXR-antagonist [DORA]).
# (§5) TB=Total Bound (in presence of 0.5% DMSO); NSB=Non Specific Bound (in the presence of Suvorexant at 1 μM)=0%;
# (§6) SB=Specific Bound (TB-NSB)=100%
# (§7) Assay data were used to determine half maximal inhibitory concentration (IC50) using a four-parameter logistic model in XLfit and/or GraphPad Prism v5. IC50 were derived from plots of % SB against log 10 of the concentration of the compound of Example 1. The pKi were calculated from the IC50 using the Cheng-Prusoff correction: […]=IC50/(1+([L]/KD)) where [L] is the radioligand concentration in the displacement assay, and KD is the dissociation constant of the radioligand.
# (§8) The Selectivity value is derived from the Ki [Ki (OX2R)/Ki(OX1R)].
# (§9) was prepared and tested by analogous methods to those described above in Example 1 and Example 2 in respect of the compound of Example 1.
# [2] = biological target: T2, human recombinant OX1 (hOX1R) receptor (Homo sapiens, UniProt O43613); assay: Scintillation Proximity binding Assay (SPA), [3H]-SB674042 displacement, membranes of CHO cell line transformed with hOX1R; conditions: for Ki: 60 min, Cheng-Prusoff from IC50, geometric mean, read-out: hOX1R Binding pKi (60 min) (converted); for IC50: SPA, [3H]-SB674042, room temperature (19° C.), GeoMean, read-out: IC50 OX1R
# T2 construct: expressed in transfected cells; host or cells: CHO cell line (membranes)
# T2 sequence (O43613 1-425): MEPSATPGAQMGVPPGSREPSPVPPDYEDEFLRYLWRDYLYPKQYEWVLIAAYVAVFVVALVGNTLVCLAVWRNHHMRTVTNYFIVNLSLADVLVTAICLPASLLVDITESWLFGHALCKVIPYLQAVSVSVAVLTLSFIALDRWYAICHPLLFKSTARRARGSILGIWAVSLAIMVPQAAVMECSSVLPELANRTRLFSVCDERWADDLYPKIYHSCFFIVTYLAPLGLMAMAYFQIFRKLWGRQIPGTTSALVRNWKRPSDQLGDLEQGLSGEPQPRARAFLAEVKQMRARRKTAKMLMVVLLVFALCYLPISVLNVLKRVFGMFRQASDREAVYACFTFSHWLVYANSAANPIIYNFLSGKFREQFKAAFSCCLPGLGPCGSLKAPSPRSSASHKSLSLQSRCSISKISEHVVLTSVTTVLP
# Procedure: as §1, §2, §3, §4, §5, §6, §7, §8, §9
# [3] = SPA, [3H]-EMPA, room temperature (19° C.), GeoMean, read-out: IC50 OX2R
# [4] = data at 60 min, read-out: OX2R pIC50 (converted)
SMILES,Ki [1] [nM],OX2R Selectivity (IC50 OX1R/OX2R) ([1]; IC50 ratio),"IC50 [1, 3] [nM]","IC50 [1, 4] [nM]",Selectivity OX2R/OX1R [1],Ki [2] [nM],IC50 [2] [nM],affinity for hOX2R (in words) [1],affinity for hOX2R compared with comparative Example A (in words) ([1]; comparison),hOX2R Selectivity (IC50 hOX2R/hOX1R) ([1]; head says IC50 ratio),selectivity for hOX2R ([1]; over hOX1R) [fold],hOX2R Binding Equilibration Time ([1]; room temperature (19° C.)) [min],affinity for hOX1R (in words) [2]
"COc1ccc(C(=O)N2C[C@@H]3CN(c4cc(C)c(C#N)c(C)n4)C[C@@H]3C2)c(F)c1 [Example A, 6-[(3aS,4S,6aR)-5-(2-fluoro-4-methoxybenzoyl)-octahydropyrrolo[3,4-c]pyrrol-2-yl]-2,4-dimethylpyridine-3-carbonitrile, reference compound]",85.1,52,150,151,43,3630,7840,,,,,,
"COc1ccc(C(=O)N2C[C@H]3CN(c4cc(C)c(C#N)c(C)n4)C[C@H]3[C@@H]2C)c(F)c1 [Example 1, 6-[(3aS,4S,6aR)-5-(2-fluoro-4-methoxybenzoyl)-4-methyl-octahydropyrrolo[3,4-c]pyrrol-2-yl]-2,4-dimethylpyridine-3-carbonitrile]",0.724,,1.23,1.23,69,47.9,97.7,high affinity,higher affinity,69,69,38,high affinity
